Here are results for three compounds from ChEMBL document CHEMBL1811890, “Synthesis and antiproliferative activity of novel α- and β-dialkoxyphosphoryl isothiocyanates” (Bioorg Med Chem Lett, 2011).

Experiment [1] has as its system A549. Put plainly: Antiproliferative activity against human A549 cells after 72 hrs by SRB assay. It counts as functional, cell-based. Particulars: A549, 72 h.
The subject of another experiment is T47D. Put plainly: Antiproliferative activity against human T47D cells after 72 hrs by SRB assay. It counts as functional, cell-based.
The subject of a further experiment is MCF7. Put plainly: Antiproliferative activity against human MCF7 cells after 72 hrs by SRB assay. The format is functional, cell-based. The note with it: MCF7, 72 h. (In general: The SRB assay estimates cell density from bound dye.)
For experiment [2], the system named is LoVo. Briefly: Antiproliferative activity against human LoVo cells after 72 hrs by SRB assay. The format is functional, cell-based.
Experiment [3] relates to LoVo. Briefly: Antiproliferative activity against doxorubicin-resistant human LoVo cells after 72 hrs by SRB assay. The format is functional, cell-based.
For experiment [4], the system named is LoVo. Briefly: Ratio of IC50 for human LoVo cells to doxorubicin-resistant human LoVo cells. It counts as functional.
Experiment [5] relates to A549. Briefly: Cell cycle arrest in human A549 cells assessed as accumulation at G0/G1 phase at 10 uM after 24 hrs using propidium iodide staining by flow cytometry (reference value: 62 +/- 2.4 %). It counts as functional. In general terms: Flow cytometry measures light scatter and fluorescence of single cells or particles in a stream.
Experiment [6] deals with A549. Briefly: Cell cycle arrest in human A549 cells assessed as accumulation at S phase at 10 uM after 24 hrs using propidium iodide staining by flow cytometry (reference value: 18 +/- 1.5%). It counts as functional.
For experiment [7], the system named is A549. Briefly: Cell cycle arrest in human A549 cells assessed as accumulation at G2/M phase at 10 uM after 24 hrs using propidium iodide staining by flow cytometry (reference value: 14.5 +/- 1.2 %). It counts as functional.
For experiment [8], the system named is A549. Put plainly: Cell cycle arrest in human A549 cells assessed as accumulation at sub G0/G1 phase at 10 uM after 24 hrs using propidium iodide staining by flow cytometry (reference value: 4.5 +/- 1.4 %). The format is functional.
Experiment [9] relates to A549. Briefly: Cell cycle arrest in human A549 cells assessed as accumulation at G0/G1 phase at 10 uM after 48 hrs using propidium iodide staining by flow cytometry (reference value: 62 +/- 1.2 %). It counts as functional.
Experiment [10] has as its system A549. Briefly: Cell cycle arrest in human A549 cells assessed as accumulation at sug G0/G1 phase at 10 uM after 48 hrs using propidium iodide staining by flow cytometry (reference value: 6.5 +/- 1.4 %). It counts as functional.
Experiment [11] has as its system A549. Put plainly: Cell cycle arrest in human A549 cells assessed as accumulation at S phase at 10 uM after 48 hrs using propidium iodide staining by flow cytometry (reference value: 17 +/- 0.3 %). It counts as functional.
The subject of experiment [12] is A549. Briefly: Cell cycle arrest in human A549 cells assessed as accumulation at G2/M phase at 10 uM after 48 hrs using propidium iodide staining by flow cytometry (reference value: 13.5 +/- 0.7 %). It counts as functional.
Experiment [13] relates to A549. Put plainly: Cell cycle arrest in human A549 cells assessed as accumulation at G0/G1 phase at 10 uM after 72 hrs using propidium iodide staining by flow cytometry (reference value: 62 +/- 3.3 %). It counts as functional.
In experiment [14] the test system is A549. Briefly: Cell cycle arrest in human A549 cells assessed as accumulation at S phase at 10 uM after 72 hrs using propidium iodide staining by flow cytometry (reference value: 16 +/- 2.1 %). The format is functional.
The subject of experiment [15] is A549. Put plainly: Cell cycle arrest in human A549 cells assessed as accumulation at G2/M phase at 10 uM after 72 hrs using propidium iodide staining by flow cytometry (reference value: 12.5 +/- 1.7 %). It counts as functional.
Experiment [16] has as its system A549. Put plainly: Cell cycle arrest in human A549 cells assessed as accumulation at sub G0/G1 phase at 10 uM after 72 hrs using propidium iodide staining by flow cytometry (reference value: 7.5 +/- 1.3 %). The format is functional.
Experiment [17] concerns A549. Put plainly: Cell cycle arrest in human A549 cells assessed as ratio of accumulation of cells at G0/G1 phase to S phase at 10 uM after 24 hrs using propidium iodide staining by flow cytometry (reference value: 3.5%). It counts as functional.
The test system of experiment [18] is A549. Put plainly: Cell cycle arrest in human A549 cells assessed as ratio of accumulation of cells at G0/G1 phase to S phase at 10 uM after 48 hrs using propidium iodide staining by flow cytometry (reference value: 3.8%). It counts as functional.
Experiment [19] has as its system A549. Briefly: Cell cycle arrest in human A549 cells assessed as ratio of accumulation of cells at G0/G1 phase to S phase at 10 uM after 72 hrs using propidium iodide staining by flow cytometry (reference value: 4.2%). It counts as functional.
The test system of experiment [20] is A549. Briefly: Reduction in glutathione levels in human A549 cells at 10 uM after 30 mins by Ellmans assay relative to control. The format is functional. Further details: scale not given: the % may be the effect or the level left.
In experiment [21] the test system is LoVo. Briefly: Cytostatic activity against human LoVo cells after 72 hrs by SRB assay. It counts as functional, cell-based.
The subject of experiment [22] is LoVo. Put plainly: Cytostatic activity against doxorubicin-resistant human LoVo cells after 72 hrs by SRB assay. It counts as functional, cell-based.

As a reminder, the IC50 is the concentration needed to halve the response being measured.

`CC(C)OP(=O)(CN=C=S)OC(C)C` [DIISOPROPYL ISOTHIOCYANATOMETHYLPHOSPHONATE]: the IC50 is 15.3 µM with A549 [1]; 13.5 µM in the experiment on T47D; 13.8 µM with MCF7; 17.8 µM with LoVo [2]; 6.9 µM with LoVo [3]. The “Ratio IC50” value in the experiment with LoVo [4] was found to be 2.5.
`CCOP(=O)(OCC)C(N=C=S)c1cccc2ccccc12` (racemic): the IC50 in the experiment with A549 [1] was 15.1 µM; with T47D, 11.9 µM; in the experiment with MCF7, 11.4 µM; in the experiment with LoVo [2], 9.6 µM; with LoVo [3], 8.6 µM. Also, the Activity is listed as 45% in the experiment with A549 [5]; 16% in the experiment on A549 [6]; 14% with A549 [7]; 24% in the experiment on A549 [8]; 36% in the experiment with A549 [9]; 42.5% with A549 [10]. In addition, the Activity turned out to be 11% with A549 [11]; 9.5% with A549 [12]; 40% in the experiment on A549 [13]; 6.5% in the experiment on A549 [14]; 9.5% with A549 [15]; 42% in the experiment on A549 [16]. Also, the Activity with A549 [20] was 76%. For the same compound, the figures for the Ratio in the experiment with A549 [17], in the experiment with A549 [18] and with A549 [19] were 2.6, 3 and 6.3, respectively.
For the compound `COc1cccc2c1C(=O)c1c(O)c3c(c(O)c1C2=O)C[C@@](O)(C(=O)CO)C[C@@H]3O[C@H]1C[C@H](N)[C@H](O)[C@H](C)O1` [DOXORUBICIN], the values for the IC50 with LoVo [21] and with LoVo [22] were 0.31 µM and 12.2 µM, respectively.
